Measured values from patent US12240844B2 (Voronoi, Inc., priority 2019, dated 2025).

Key:
Assay in all cases: scanMAX Kinase panel (DiscoverX), % control
Type in all cases: binding
Conditions in all cases: <35% = active
ALK (C1156Y) = biological target: T1, ALK (C1156Y) (Homo sapiens, UniProt Q9UM73, C1156Y)
T1 construct: purchased DiscoverX
Method in brief: (§1)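 Kinase selectivity profiled on the scanMAX panel with compound at 1 uM in DMSO. % control was computed relative to DMSO as negative control (100%) and a positive control compound (0%); values below 35% were counted as activity against that kinase.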

ALK = biological target: T2, ALK (Homo sapiens, UniProt Q9UM73)
T2 construct: purchased DiscoverX
Method in brief: as §1

CLK1 = biological target: T3, CLK1 (Homo sapiens, UniProt P49759)
T3 construct: purchased DiscoverX
Method in brief: as §1

CLK2 = biological target: T4, CLK2 (Homo sapiens, UniProt P49760)
T4 construct: purchased DiscoverX
Method in brief: as §1

CLK3 = biological target: T5, CLK3 (Homo sapiens, UniProt P49761)
T5 construct: purchased DiscoverX
Method in brief: as §1

CLK4 = biological target: T6, CLK4 (Homo sapiens, UniProt Q9HAZ1)
T6 construct: purchased DiscoverX
Method in brief: as §1

DYRK1A = biological target: T7, DYRK1A (Homo sapiens, UniProt Q13627)
T7 construct: purchased DiscoverX
Method in brief: as §1

DYRK1B = biological target: T8, DYRK1B (Homo sapiens, UniProt Q9Y463)
T8 construct: purchased DiscoverX
Method in brief: as §1

DYRK2 = biological target: T9, DYRK2 (Homo sapiens, UniProt Q92630)
T9 construct: purchased DiscoverX
T9 sequence (Q92630 1-601): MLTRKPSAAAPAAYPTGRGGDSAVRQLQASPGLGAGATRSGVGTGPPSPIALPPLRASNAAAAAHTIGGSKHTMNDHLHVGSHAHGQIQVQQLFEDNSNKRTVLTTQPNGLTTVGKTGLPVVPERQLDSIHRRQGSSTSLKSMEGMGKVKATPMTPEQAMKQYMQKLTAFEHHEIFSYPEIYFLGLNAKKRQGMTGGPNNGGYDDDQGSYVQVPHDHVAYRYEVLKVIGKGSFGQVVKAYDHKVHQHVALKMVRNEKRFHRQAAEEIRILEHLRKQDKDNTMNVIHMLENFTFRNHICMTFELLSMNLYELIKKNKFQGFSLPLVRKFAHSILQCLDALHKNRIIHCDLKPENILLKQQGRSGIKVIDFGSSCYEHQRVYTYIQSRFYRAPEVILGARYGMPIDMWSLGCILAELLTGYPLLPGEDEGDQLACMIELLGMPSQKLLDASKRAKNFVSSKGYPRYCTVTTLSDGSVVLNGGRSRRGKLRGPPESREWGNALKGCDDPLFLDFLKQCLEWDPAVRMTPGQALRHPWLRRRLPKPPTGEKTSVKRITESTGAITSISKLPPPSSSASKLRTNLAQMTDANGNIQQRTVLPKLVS
Method in brief: as §1

GAK = biological target: T10, GAK (Homo sapiens, UniProt O14976)
T10 construct: purchased DiscoverX
T10 sequence (O14976 1-1311): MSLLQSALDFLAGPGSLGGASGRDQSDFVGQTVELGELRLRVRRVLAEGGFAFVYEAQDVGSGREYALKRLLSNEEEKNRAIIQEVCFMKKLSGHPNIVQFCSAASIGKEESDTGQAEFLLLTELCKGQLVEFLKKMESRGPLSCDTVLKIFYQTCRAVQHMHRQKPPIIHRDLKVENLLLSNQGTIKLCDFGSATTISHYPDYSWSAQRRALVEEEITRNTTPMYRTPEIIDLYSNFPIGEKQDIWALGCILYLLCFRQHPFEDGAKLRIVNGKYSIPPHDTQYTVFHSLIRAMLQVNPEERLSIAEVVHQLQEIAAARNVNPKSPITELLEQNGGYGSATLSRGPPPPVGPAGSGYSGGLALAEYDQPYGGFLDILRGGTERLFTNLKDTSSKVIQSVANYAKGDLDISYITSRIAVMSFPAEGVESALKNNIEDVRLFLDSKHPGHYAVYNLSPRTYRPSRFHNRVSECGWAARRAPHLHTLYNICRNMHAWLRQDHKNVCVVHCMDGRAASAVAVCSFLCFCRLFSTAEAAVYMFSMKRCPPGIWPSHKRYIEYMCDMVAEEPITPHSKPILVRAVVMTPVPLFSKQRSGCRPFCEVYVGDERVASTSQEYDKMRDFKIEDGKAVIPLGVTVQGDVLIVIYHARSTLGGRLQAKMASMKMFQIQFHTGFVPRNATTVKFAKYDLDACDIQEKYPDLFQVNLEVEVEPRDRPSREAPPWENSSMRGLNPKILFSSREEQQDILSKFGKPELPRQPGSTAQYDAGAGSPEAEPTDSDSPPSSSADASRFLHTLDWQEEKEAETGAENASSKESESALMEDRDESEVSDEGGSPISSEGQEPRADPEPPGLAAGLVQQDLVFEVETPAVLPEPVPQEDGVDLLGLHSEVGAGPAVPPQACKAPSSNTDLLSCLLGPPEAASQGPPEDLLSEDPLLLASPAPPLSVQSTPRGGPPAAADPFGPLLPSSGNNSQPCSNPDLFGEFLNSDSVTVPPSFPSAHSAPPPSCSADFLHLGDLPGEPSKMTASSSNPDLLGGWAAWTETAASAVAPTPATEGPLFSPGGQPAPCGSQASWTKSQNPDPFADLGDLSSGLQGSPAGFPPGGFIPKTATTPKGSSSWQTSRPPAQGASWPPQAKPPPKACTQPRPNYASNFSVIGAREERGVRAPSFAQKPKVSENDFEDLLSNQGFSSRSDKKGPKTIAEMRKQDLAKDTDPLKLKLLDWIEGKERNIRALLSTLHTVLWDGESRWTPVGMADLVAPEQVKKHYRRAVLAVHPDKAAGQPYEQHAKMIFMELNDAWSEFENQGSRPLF
Method in brief: as §1

MYLK = biological target: T11, MYLK (Homo sapiens, UniProt Q15746)
T11 construct: purchased DiscoverX
Method in brief: as §1

T6 sequence (Q9HAZ1 whole entry): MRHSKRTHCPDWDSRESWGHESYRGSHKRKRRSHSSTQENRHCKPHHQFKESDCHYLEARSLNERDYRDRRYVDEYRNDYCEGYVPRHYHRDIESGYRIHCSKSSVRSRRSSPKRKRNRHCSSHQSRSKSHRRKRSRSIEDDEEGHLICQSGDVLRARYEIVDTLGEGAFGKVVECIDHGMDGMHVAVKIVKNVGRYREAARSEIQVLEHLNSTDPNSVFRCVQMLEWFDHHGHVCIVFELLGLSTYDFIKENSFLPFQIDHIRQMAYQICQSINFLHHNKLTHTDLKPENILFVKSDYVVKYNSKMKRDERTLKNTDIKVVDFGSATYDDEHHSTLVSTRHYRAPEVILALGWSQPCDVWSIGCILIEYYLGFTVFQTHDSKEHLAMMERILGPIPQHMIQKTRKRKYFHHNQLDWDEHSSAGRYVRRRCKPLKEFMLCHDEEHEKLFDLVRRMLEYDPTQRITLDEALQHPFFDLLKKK
T3 sequence (P49759 whole entry): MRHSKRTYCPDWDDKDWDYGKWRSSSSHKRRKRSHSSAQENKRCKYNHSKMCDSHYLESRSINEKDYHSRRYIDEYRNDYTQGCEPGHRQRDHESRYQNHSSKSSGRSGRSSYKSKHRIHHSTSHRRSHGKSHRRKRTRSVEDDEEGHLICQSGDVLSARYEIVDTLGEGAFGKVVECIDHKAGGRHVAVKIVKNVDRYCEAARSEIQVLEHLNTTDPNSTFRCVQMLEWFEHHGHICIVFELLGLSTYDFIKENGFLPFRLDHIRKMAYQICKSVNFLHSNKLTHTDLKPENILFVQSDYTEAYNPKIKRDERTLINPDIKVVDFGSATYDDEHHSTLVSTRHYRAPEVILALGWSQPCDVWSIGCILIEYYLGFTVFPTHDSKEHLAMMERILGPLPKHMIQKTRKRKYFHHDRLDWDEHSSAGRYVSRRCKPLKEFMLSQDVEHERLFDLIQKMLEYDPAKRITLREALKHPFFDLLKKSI
T2 sequence (Q9UM73 19-1620): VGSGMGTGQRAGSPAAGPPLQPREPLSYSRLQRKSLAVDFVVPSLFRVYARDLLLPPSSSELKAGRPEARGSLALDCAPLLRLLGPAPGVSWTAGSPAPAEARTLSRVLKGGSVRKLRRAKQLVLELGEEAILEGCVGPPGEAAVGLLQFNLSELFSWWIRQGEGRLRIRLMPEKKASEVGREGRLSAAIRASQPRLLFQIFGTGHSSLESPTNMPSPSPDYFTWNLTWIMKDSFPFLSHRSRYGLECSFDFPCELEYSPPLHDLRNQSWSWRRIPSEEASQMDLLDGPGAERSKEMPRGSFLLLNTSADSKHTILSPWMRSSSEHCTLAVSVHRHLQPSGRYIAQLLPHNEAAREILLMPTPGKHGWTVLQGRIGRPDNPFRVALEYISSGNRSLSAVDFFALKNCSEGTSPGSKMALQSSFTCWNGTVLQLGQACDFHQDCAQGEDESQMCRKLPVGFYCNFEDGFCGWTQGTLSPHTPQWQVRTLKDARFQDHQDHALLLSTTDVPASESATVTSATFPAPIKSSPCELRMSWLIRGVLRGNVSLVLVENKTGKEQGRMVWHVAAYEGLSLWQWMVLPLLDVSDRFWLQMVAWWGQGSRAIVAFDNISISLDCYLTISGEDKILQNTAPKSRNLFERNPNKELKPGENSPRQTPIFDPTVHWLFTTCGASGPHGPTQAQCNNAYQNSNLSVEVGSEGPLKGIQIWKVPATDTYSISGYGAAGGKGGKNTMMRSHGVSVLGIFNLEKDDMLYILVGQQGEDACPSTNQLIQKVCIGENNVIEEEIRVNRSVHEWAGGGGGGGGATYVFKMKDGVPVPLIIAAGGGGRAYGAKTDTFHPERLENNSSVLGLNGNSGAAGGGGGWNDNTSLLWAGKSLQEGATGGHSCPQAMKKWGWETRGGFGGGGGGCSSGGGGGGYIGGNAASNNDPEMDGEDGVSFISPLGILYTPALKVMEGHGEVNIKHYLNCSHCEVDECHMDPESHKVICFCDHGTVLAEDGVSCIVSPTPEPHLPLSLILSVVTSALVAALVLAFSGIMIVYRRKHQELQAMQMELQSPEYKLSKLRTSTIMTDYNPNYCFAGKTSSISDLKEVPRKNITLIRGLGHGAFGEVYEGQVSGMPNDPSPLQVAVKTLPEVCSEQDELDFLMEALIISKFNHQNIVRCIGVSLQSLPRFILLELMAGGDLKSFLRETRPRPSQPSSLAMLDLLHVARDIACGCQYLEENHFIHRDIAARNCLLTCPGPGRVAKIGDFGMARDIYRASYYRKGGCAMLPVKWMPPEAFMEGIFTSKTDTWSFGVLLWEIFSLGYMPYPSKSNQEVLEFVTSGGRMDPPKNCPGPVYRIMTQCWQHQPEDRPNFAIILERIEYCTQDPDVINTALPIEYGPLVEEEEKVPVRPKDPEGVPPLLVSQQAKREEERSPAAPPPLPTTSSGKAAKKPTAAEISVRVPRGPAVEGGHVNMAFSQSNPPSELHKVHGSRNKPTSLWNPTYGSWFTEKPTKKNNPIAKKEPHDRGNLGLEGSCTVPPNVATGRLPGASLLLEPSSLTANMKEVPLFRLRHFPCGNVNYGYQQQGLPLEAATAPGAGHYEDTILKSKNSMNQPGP
T1 sequence (Q9UM73 19-1620 C1156Y): as the sequence (Q9UM73 19-1620) above, with C1138Y counted along it
T5 sequence (P49761 whole entry): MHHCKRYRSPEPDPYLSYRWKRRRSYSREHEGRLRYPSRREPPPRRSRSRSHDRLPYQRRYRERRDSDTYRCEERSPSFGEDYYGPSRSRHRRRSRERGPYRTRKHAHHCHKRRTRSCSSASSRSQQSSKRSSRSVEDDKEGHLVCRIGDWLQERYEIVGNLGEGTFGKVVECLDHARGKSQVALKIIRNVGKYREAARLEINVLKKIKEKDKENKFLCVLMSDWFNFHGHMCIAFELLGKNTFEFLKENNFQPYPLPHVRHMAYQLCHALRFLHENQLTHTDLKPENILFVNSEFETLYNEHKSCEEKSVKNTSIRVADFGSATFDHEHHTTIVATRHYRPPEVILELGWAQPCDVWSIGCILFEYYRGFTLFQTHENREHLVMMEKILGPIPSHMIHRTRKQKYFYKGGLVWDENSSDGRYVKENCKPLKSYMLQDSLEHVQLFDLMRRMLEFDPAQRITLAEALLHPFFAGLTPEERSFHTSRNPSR
T4 sequence (P49760 whole entry): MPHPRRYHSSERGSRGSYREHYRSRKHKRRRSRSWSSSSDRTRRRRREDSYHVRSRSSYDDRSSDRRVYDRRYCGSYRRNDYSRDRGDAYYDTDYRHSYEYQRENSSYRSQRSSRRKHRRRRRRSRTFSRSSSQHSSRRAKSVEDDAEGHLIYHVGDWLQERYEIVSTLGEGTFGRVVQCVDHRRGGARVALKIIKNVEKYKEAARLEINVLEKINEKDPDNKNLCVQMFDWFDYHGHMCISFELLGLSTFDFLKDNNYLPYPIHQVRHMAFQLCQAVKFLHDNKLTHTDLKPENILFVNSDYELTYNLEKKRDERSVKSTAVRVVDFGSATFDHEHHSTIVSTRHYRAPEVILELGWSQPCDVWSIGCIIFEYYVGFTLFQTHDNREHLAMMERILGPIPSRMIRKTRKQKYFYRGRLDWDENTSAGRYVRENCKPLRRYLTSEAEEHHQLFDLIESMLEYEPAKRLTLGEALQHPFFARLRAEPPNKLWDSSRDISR
T8 sequence (Q9Y463 whole entry): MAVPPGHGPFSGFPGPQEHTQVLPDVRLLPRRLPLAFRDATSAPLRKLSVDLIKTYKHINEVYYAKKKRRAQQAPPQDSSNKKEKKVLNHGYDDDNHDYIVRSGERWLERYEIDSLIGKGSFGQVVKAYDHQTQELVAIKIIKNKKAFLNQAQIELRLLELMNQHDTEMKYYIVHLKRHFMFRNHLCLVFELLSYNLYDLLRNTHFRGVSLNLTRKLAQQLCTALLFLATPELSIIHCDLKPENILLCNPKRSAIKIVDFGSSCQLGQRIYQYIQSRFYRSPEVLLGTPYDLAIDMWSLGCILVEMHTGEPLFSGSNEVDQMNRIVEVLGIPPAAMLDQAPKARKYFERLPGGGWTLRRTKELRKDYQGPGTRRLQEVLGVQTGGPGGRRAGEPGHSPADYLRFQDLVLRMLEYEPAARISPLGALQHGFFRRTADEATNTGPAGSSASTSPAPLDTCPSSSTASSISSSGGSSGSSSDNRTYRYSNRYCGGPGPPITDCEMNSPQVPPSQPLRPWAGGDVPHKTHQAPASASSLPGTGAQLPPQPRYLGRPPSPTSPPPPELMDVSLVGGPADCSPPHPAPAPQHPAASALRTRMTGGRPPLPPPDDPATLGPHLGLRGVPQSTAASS

remaining binding at 1 µM (ALK (C1156Y)) [%]	remaining binding at 1 µM (ALK) [%]	remaining binding at 1 µM (CLK1) [%]	remaining binding at 1 µM (CLK2) [%]	remaining binding at 1 µM (CLK3) [%]	remaining binding at 1 µM (CLK4) [%]	remaining binding at 1 µM (DYRK1A) [%]	remaining binding at 1 µM (DYRK1B) [%]	remaining binding at 1 µM (DYRK2) [%]	remaining binding at 1 µM (GAK) [%]	remaining binding at 1 µM (MYLK) [%]	Structure (SMILES)
3.9	3.8	2.4	0.55	19	8.2	0	1.4	9.7	9.9	1.8	CNc1cc(Nc2ccc(C(=O)N3CC[C@H](N4CCOCC4)C3)c3c2OCC3)nc2[nH]cc(C(F)(F)F)c12 [Example 217, (S)-(7-((4-(methylamino)-3-(trifluoromethyl)-1H-pyrrolo[2,3-b]pyridin-6-yl)amino)-2,3-dihydrobenzofuran-4-yl)(3-morpholinopyrrolidin-1-yl)methanone]
5.3	9	8.5	3.1	91	1.2	2	0	45	29	3	CCNc1cc(Nc2ccc(P3(=O)CCN(C4CC4)CC3)cc2OC)nc2[nH]cc(C(F)(F)F)c12 [Example 206, 1-cyclopropyl-4-(4-((4-(ethylamino)-3-(trifluoromethyl)-1H-pyrrolo[2,3-b]pyridin-6-yl)amino)-3-methoxyphenyl)-1,4-azaphosphinane 4-oxide]
0.9	0.65	13	0.65	13	0.55	0.35	0	20	6.3	0	CNc1cc(Nc2ccc(C(=O)N3CCC(N4CCOCC4)CC3)c3c2OCCO3)nc2[nH]cc(C(F)(F)F)c12 [Example 160, (8-((4-(methylamino)-3-(trifluoromethyl)-1H-pyrrolo[2,3-b]pyridin-6-yl)amino)-2,3-dihydrobenzo [b] [1,4]dioxin-5-yl)(4-morpholinopiperidin-1-yl)methanone]
9.7	14	3.6	0	58	0.55	2.2	1.4	62	15	15	O=C(c1ccc(Nc2cc(C3CC3)c3c(C(F)(F)F)c[nH]c3n2)c2c1CCO2)N1CC[C@H](N2CCOCC2)C1 [Example 237, (S)-(7-((4-cyclopropyl-3-(trifluoromethyl)-1H-pyrrolo[2,3-b]pyridin-6-yl)amino)-2,3-dihydrobenzofuran-4-yl)(3-morpholinopyrrolidin-1-yl)methanone]
